# In US20130224239A1, “ALCOHOLIC EXTRACT OF FUNGI OF GENUS […] AND USE THEREOF” (KING SAUD UNIVERSITY, priority 2011, published 2013):
# Assays:
# [1] = system: Salmonella typhimuium (RCMB 0104); experiment: Antimicrobial screening, disc diffusion; assay type: cell-based; settings: Salmonella typhimuim; compounds isolated from Cunninghamella elegans
# Experimental: The alcoholic extracts obtained were used for testing their antimicrobial activity. Each extract (0.5 g) was dissolved in 10 ml water. Same concentrations for the successive extracts (using diethyl ether, chloroform, ethyl acetate and n-butanol) were also prepared.
# The representatives of Gram negative bacteria, namely Salmonella typhimuium (RCMB 0104), Escherichia coli (RCMB 0103), Pseudomonas aeruginosa (RCMB 0102) and Gram positive bacteria, namely Bacillus subtilis (RCMB 0107), Staphylococcus aureus (RCMB 0106), Streptococcus pyogenes (RCMB 0109), unicellular fungi, namely Candida albicans (RCMB 5002) and filamentous fungi, namely Aspergillus fumigatus (RCMB 2003) and Penicllium expansum (RCMB 1006) were used as test organisms (RCMB: The Regional Center for Mycology and Biotechnology, Al-azhar University Nasser City, Cairo, Egypt).
# (§1) For antimicrobial screening the well known disc diffusion and agar well diffusion methods were used, together with the determination of minimum inhibitory concentration (MIC), see Duguid et al., Microbial Infections, The English Language Book Society, Churchill Livingston, Edingburgh, London, 1978; vol. 1, page 110.
# Disc diffusion method: The agar disc diffusion method is employed for the determination of antimicrobial activities of the extracts of the investigated fungal species. Sterilized paper discs (Whatman No. 1) ([…]) were separately soaked in the extracts and transferred onto the surface of growth media seeded with the test organism. After incubation period, following suitable conditions for the test organism, the diameter of the inhibition zone around the discs was measured in millimeters.
# Each fungal species was grown on malt extract media at 28±2° C. for 14 days. The metabolites of the fungal species were screened for antimicrobial activity.
# Staphylococcus aureus = experiment: Minimum inhibitory concentration, agar well diffusion; assay type: cell-based; settings: against Staphylococcus aureus
# Excerpt: as §1
# Agar well diffusion method: On the other hand, the agar well diffusion method was employed for determination of the minimum inhibitory concentration (MIC). The test organisms were separately seeded in the agar medium. The wells (10 mm in diameter) were cut from the agar and […] (different concentrations) was transferred into them. After incubation period, following suitable conditions for the test organism, the diameter of the inhibition zone around the discs was measured in millimeters. The obtained result was the mean of three experiments.
# The minimum inhibitory concentration (MIC) of Cunninghamella blakesleeana, C. elegans, C. homothallica and successive extracts and isolated compounds of Cunninghamella elegans against Staphylococcus aureus was determined.
# Minimum inhibitory concentration (MIC): The lowest concentration of an antimicrobial agent that will inhibit a visible growth of a microorganism after overnight incubation.
compound,measurement,setting,value
"Nc1ncnc2c1ncn2C1OC(CO)C(O)C1O (stereo not drawn) [Compound 4, 2-(6-amino-9H-purine-9-yl)-5-(hydroxymethyl)oxolane-3,4-diol]",Diameter of inhibition zone,[1],00.0 mm
same,Minimum inhibitory concentration,Staphylococcus aureus,020 µg/mL
same,MIC,Staphylococcus aureus; read-out: Minimum inhibitory concentration,20 µg/mL
